Measured values taken from publication PMC11788587, “Validating Low‐Dose Iohexol as a Marker for Glomerular Filtration Rate by In Vitro and In Vivo Studies” (Clinical and Translational Science, 2025).
Like-named read-outs stand apart in the source and are kept apart here.

Columns and labels:
hMDR1 = biological target: T1, hMDR1 (Homo sapiens, UniProt P08183); experiment: Inhibition of hMDR1-mediated 3H-NMQ uptake, inside-out membrane vesicles; format: biochemical; details: substrate 0.01 µM 3H-NMQ, median (95% CI)
T1 construct: purchased Pharm Tox, Netherlands; host or cells: HEK293 cells (membrane vesicles)
Source text: We characterized the inhibitory potential of iohexol on major drug transporters recommended by regulatory agencies, which were previously assessed in a clinical transporter phenotyping cocktail study. These transporters include hOAT1, hOAT3, hOCT1, hOCT2, hMATE1, hMATE2K, human organic anion transporter polypeptides (hOATP)1B1, hOATP1B3, and human multidrug resistance protein (hMDR)1. Additionally, we investigated whether iohexol is a substrate for any of the renal transporters among these, including hOAT1/3, hOCT1/2, and hMATE1/2K. Cell‐based uptake assays were used to assess the activities of hOAT1/3, hOCT1/2, hMATE1/2K, and hOATP1B1/1B3. Inside‐out membrane vesicle uptake assays were used to evaluate the activity of hMDR1.
To determine the maximal inhibitory potential of iohexol, intracellular accumulation of a standard substrate was measured with and without the clinically relevant highest concentrations of iohexol. Control inhibitors were tested in each experiment.
In all subsequent in vitro studies, control experiments were conducted to validate the results. […] Each condition, including cells or vesicles with the transporter and their respective controls, was analyzed in at least three replicates. […]
R version 4.2.1 (R Foundation for Statistical Computing, Vienna, Austria) was used for statistical evaluations and data visualization. The data analysis approach for the in vitro study was detailed by Hsin CH et al..^1 In brief, for transport assays, the initial uptake rate was calculated by normalizing the substrate concentration to both the protein concentration and the incubation time for each dish or well. The transporter-mediated uptake rate (net uptake) was determined by performing an element-wise subtraction of uptake rates from different conditions. […] Net uptake rates were determined by subtracting the uptake rate of the control cells or vesicles from that of the transporter-expressing cells or vesicles for each pair. […]

[1] = Clinical trial in healthy volunteers, population pharmacokinetic analysis; format: in vivo, human;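 note: population pharmacokinetic parameters fitted to plasma and urine data, interindividual variability modelled exponentially, inter-occasion variability tied additively, sensitivity analysis compares alternative models omitting data from one subject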
Method: After establishing a reasonable structural model, the impact of dose‐related effects was assessed as a categorical covariate on PK parameters through forward and backward selection processes. Model improvement was evaluated using the change in the objective function value (ΔOFV), with significance levels of 0.05 (ΔOFV ≤ −3.84) and 0.01 (ΔOFV ≤ −6.63). The stability and performance of the final model were evaluated graphically and statistically, using goodness‐of‐fit plots, nonparametric bootstrap analysis [32], and the visual predictive check (VPC) technique [33], as described earlier [28].
Interindividual variability was estimated for CLR, V1, V2, and V3 using an exponential model. Inter‐occasion variability for CLR, V1, and Q2 was linked to inter‐individual variability through an additive model. The residual variability in plasma and urine data was best described by proportional error models.
To evaluate its impact on the final parameter estimates, we used two approaches: (i) conducting a sensitivity analysis by comparing parameter estimates across three models—the final model, a model excluding early post-dose plasma samples from the subject, and a model excluding all data from this period for the subject.

[2] = Model 1: excluding samples within 45 minutes after the test dose for the subject with delayed absorption
[3] = Model 2: excluding all data from the subject with delayed absorption when receiving the test dose
[4] = final model, entire dataset, n=12
[5] = final model, nonparametric bootstrap
[6] = one subject, test dose period with suspected paravenous administration, model with absorption phase

T1 sequence (P08183 whole entry): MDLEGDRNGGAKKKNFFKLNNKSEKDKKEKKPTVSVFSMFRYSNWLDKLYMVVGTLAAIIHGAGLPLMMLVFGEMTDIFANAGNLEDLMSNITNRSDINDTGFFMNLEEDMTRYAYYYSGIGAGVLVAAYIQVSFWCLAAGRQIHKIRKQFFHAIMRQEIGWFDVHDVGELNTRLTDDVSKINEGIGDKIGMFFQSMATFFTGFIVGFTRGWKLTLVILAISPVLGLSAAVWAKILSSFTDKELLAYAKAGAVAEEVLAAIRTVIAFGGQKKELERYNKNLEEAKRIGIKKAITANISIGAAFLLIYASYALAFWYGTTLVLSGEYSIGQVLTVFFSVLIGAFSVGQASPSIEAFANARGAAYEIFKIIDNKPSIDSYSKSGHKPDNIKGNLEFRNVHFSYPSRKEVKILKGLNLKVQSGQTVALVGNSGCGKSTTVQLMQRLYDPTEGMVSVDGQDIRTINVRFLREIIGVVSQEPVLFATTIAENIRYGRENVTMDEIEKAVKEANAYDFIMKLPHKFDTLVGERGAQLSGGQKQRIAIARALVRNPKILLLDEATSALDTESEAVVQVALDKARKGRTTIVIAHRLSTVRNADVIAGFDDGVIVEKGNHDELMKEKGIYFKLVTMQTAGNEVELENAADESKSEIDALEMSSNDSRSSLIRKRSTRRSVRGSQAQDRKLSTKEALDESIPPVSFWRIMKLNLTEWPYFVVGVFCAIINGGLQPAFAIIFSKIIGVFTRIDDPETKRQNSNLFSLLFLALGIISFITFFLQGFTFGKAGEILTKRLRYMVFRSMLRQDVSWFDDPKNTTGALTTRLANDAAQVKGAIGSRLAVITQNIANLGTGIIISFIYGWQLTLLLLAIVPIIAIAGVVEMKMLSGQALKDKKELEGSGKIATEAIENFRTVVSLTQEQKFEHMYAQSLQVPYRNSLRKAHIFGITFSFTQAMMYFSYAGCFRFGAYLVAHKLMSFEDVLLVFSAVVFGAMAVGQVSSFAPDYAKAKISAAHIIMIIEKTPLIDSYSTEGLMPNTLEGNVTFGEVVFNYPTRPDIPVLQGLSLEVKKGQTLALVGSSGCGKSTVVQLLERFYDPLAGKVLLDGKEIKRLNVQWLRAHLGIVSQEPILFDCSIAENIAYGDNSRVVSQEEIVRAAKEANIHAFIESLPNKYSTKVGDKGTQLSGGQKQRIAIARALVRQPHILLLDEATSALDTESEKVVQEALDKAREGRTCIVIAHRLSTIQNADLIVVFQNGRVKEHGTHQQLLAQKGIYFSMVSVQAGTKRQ

In the case of CC(=O)N(CC(O)CO)c1c(I)c(C(=O)NCC(O)CO)c(I)c(C(=O)NCC(O)CO)c1I (stereo not drawn) [iohexol], the “Inhibitory effect (% reduction of specific activity)” value (hMDR1; 20 mM iohexol) is reported as < 30%, the inhibition at 1 min, 2 mM (hMDR1; human, probe 3H-NMQ (N-methyl-quinidine), 0.01 µM, 2 mM iohexol, read-out: Inhibitory effect (% reduction of specific activity)) is reported as -4.9% and the inhibition at 1 min, 20 mM (hMDR1; human, probe 3H-NMQ (N-methyl-quinidine), 0.01 µM, 20 mM iohexol, read-out: Inhibitory effect (% reduction of specific activity)) is reported as 21%. For the same compound, the “Effect of dose level (categorical covariate) on PK parameters” value ([1]; 259 mg vs 3235 mg) was “did not differ significantly”, the “Inter-individual variability CLR estimate” value ([1]; Model 1) was 14.4 CV% and the “Inter-individual variability V1 estimate” value ([1]; Model 1) was 16.8 CV%. For the same compound, the “Inter-individual variability V2 estimate” value ([1]; Model 1) was 15.1 CV%, the “Inter-individual variability V3 estimate” value ([1]; Model 1) was 15.0 CV% and the “Inter-occasion variability CLR estimate” value ([1]; Model 1) was 3.69 CV%. For the same compound, the “Inter-occasion variability Q2 estimate” value ([1]; Model 1) was 23.7 CV%, the “Inter-occasion variability V1 estimate” value ([1]; Model 1) was 4.82 CV% and the Q1 estimate [1, 2] was 0.219 L/h. The Q2 estimate [1, 2] was 5.53 L/h, the V1 estimate [1, 2] was 8.91 L and the V2 estimate [1, 2] was 1.54 L. For the same compound, the V3 estimate [1, 2] was 4.30 L, the “Inter-individual variability CLR estimate” value ([1]; Model 2) was 14.2 CV% and the “Inter-individual variability V1 estimate” value ([1]; Model 2) was 17.2 CV%. The “Inter-individual variability V2 estimate” value ([1]; Model 2) was 13.8 CV%, the “Inter-individual variability V3 estimate” value ([1]; Model 2) was 13.5 CV% and the “Inter-occasion variability CLR estimate” value ([1]; Model 2) was 2.33 CV%. The “Inter-occasion variability Q2 estimate” value ([1]; Model 2) was 17.1 CV%, the “Inter-occasion variability V1 estimate” value ([1]; Model 2) was 3.87 CV% and the Q1 estimate [1, 3] was 0.227 L/h. It also gave a Q2 estimate [1, 3] of 5.38 L/h, a V1 estimate [1, 3] of 8.90 L and a V2 estimate [1, 3] of 1.57 L. For the same compound, the V3 estimate [1, 3] was 4.30 L, the “Interindividual variability CLR, point estimate” value ([1]; final model, entire dataset) was 14.0 CV% and the “Interindividual variability V1, point estimate” value ([1]; final model, entire dataset) was 16.6 CV%. For the same compound, the “Interindividual variability V2, point estimate” value ([1]; final model, entire dataset) was 14.0 CV%, the “Interindividual variability V3, point estimate” value ([1]; final model, entire dataset) was 15.5 CV% and the “Interoccasion variability CLR, point estimate” value ([1]; final model, entire dataset) was 2.51 CV%. The “Interoccasion variability Q2, point estimate” value ([1]; final model, entire dataset) was 29.2 CV%, the “Interoccasion variability V1, point estimate” value ([1]; final model, entire dataset) was 6.23 CV% and the Q1 point estimate [1, 4] was 0.221 L/h. It also gave a Q2 point estimate [1, 4] of 5.84 L/h, a V1 point estimate [1, 4] of 9.06 L and a V2 point estimate [1, 4] of 1.56 L. The V3 point estimate [1, 4] was 4.34 L, the “Interindividual variability CLR, bootstrap median (95% CI)” value [1, 5] was 13.5 (5.05–20.1) CV% and the “Interindividual variability V1, bootstrap median (95% CI)” value [1, 5] was 15.5 (6.88–23.1) CV%. The “Interindividual variability V2, bootstrap median (95% CI)” value [1, 5] was 13.4 (7.81–20.7) CV%, the “Interindividual variability V3, bootstrap median (95% CI)” value [1, 5] was 13.7 (5.57–19.2) CV% and the “Interoccasion variability CLR, bootstrap median (95% CI)” value [1, 5] was 2.44 (0.900–3.87) CV%. For the same compound, the “Interoccasion variability Q2, bootstrap median (95% CI)” value [1, 5] was 28.7 (6.99–65.8) CV%, the “Interoccasion variability V1, bootstrap median (95% CI)” value [1, 5] was 6.06 (1.55–10.2) CV% and the “Q1 bootstrap median (95% CI)” value [1, 5] was 0.219 (0.164–0.313) L/h. The “Q2 bootstrap median (95% CI)” value [1, 5] was 5.76 (4.11–8.23) L/h, the “V1 bootstrap median (95% CI)” value [1, 5] was 9.06 (8.18–10.1) L and the “V2 bootstrap median (95% CI)” value [1, 5] was 1.57 (1.36–1.87) L. The “V3 bootstrap median (95% CI)” value [1, 5] was 4.34 (3.81–4.99) L, the CL renal ([1]; human, plasma and urine, intravenous, Model 1: excluding samples within 45 minutes after the test dose for the subject with delayed absorption, read-out: CLR estimate (converted)) was 90.8 mL/min and the CL renal ([1]; human, plasma and urine, intravenous, Model 2: excluding all data from the subject with delayed absorption when receiving the test dose, read-out: CLR estimate (converted)) was 91.5 mL/min. It also gave a CL renal ([1]; human, plasma and urine, intravenous, final model, entire dataset, n=12, read-out: CLR point estimate (converted)) of 91.7 mL/min, a CL renal ([1]; human, plasma and urine, intravenous, final model, nonparametric bootstrap, read-out: CLR bootstrap median (95% CI) (converted)) of 91.7 mL/min and a CL renal ([1]; human, plasma and urine, intravenous, final model, read-out: Individual empirical Bayesian estimates of CLR, median (range) (converted)) of 87.5 mL/min. For the same compound, the Vd ([1]; human, plasma and urine, intravenous, final model, read-out: Individual empirical Bayesian estimates of volume of distribution (sum of V1, V2, and V3), median (range)) was 15.1 L, the “First-order absorption rate constant” value [1, 6] was 0.876 h⁻¹ and the Relative bioavailability [1, 6] was 93.6%.
